Series [1] concerns the target T1, P450RAI-1 (Homo sapiens, UniProt O43174).
T1 construct: expressed in transfected cells; host or cells: HeLa cells, stably transfected, hygromycin selection
T1 sequence (O43174 1-497): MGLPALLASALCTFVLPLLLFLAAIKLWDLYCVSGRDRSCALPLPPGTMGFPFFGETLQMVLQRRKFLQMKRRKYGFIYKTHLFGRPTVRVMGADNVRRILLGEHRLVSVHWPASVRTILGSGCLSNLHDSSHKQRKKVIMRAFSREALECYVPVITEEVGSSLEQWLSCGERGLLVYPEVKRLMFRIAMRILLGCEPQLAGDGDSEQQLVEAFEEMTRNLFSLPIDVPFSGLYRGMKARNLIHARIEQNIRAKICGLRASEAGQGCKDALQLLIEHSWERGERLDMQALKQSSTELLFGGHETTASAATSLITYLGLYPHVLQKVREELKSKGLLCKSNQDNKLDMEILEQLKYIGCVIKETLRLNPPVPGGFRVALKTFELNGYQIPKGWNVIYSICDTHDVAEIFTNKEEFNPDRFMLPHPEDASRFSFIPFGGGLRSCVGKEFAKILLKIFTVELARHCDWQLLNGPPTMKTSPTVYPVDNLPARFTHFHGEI
Kind of series: P450RAI-1 cell-based inhibitor assay. To be noted: P450RAI-1 stably transfected HeLa cells, [3H]-RA metabolism, 3 hours at 37° C.; read-out: P450RAI INHIBITION DATA INTACT HELA IC50. On the procedure: P450RAI-1 stably transfected HeLa cells are maintained in […] tissue culture dishes in Modified Eagle's Medium (MEM) containing 10% Fetal Bovine Serum (FBS) and 100 μg/ml hygromycin. Exponentially growing cells are harvested by incubating in trypsin. Cells are then washed with 1× Phosphate Buffered Saline (PBS) and plated in a 48-well plate at 5×10^5 cells in 0.2 ml MEM medium containing 10% FBS and 0.05 μCi[^3H]-RA in the presence or absence of increasing concentrations of the test compounds. The compounds are diluted in 100% DMSO and then added in triplicate wells at either 10, 1 or 0.1 μM final concentration. As a positive control for RA metabolism inhibition, cells are also incubated with ketoconazole at 100, 10 and 1 μM. Cell are incubated for 3 hours at 37° C. […] The water soluble radioactivity is quantified using a β-scintillation counter. IC50 values represent the concentration of inhibitor required to inhibit all-trans-RA metabolism by 50 percent and are derived manually from log-transformed data.

The subject of series [2] is skin of hairless mice. Kind of series: topical skin irritation test in hairless mice. The class given is in vivo, mouse. To be noted: topical in acetone, once daily days 1 through 5, mean ±SD, range 0-21. From the text: Mice were housed individually throughout the dosing period.
Doses are disclosed as nmol/25 g.
The grading scale used is as follows:
Values can range from 0-9.
Values can range from 0-8.

The target in series [3] is T2, RARβ (Homo sapiens, UniProt P10826).
T2 sequence (P10826 1-455): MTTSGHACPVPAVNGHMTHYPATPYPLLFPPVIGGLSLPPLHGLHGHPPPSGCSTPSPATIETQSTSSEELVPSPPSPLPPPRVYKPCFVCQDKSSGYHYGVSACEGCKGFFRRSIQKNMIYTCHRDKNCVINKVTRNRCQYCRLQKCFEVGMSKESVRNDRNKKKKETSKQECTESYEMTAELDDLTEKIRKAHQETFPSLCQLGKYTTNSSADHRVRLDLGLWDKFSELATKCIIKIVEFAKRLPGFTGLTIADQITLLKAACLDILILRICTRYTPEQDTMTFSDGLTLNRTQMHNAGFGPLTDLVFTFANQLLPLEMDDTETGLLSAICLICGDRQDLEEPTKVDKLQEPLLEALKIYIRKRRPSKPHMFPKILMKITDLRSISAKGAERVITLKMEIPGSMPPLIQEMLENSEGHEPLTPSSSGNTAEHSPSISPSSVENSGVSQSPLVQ
Kind of series: ligand binding assay, RARβ. To be noted: Kd line of EC50/(EFFICACY)/Kd, read-out: RAR Kd β. The source says:
(§1) Assays described below measure the ability of a compound to bind to, and/or activate various retinoid receptor subtypes. When in these assays a compound binds to a given receptor subtype and activates the transcription of a reporter gene through that subtype, then the compound is considered an agonist of that receptor subtype. […] In the below described assays the ability of the compounds to bind to RARα, RARβ, RARγ, RXRα, RXRβ and RXRγ receptors, and the ability or inability of the compounds to activate transcription of a reporter gene through these receptor subtypes can be tested.
A holoreceptor transactivation assay and a ligand binding assay which measure the antagonist/agonist like activity of the compounds of the invention, or their ability to bind to the several retinoid receptor subtypes, respectively, are described in published PCT Application No. WO WO93/11755 (particularly on pages 30-33 and 37-41) published on Jun. 24, 1993, the specification of which is also incorporated herein by reference. […] The results obtained in this assay are expressed in EC50 numbers, as they are also in the chimeric receptor transactivation assay. The results of ligand binding assay are expressed in Kd numbers. (See Cheng et al. Biochemical Pharmacology Vol. 22 pp 3099-3108, expressly incorporated herein by reference.)

The target in series [4] is T3, RARγ (Homo sapiens, UniProt P13631).
T3 sequence (P13631 1-454): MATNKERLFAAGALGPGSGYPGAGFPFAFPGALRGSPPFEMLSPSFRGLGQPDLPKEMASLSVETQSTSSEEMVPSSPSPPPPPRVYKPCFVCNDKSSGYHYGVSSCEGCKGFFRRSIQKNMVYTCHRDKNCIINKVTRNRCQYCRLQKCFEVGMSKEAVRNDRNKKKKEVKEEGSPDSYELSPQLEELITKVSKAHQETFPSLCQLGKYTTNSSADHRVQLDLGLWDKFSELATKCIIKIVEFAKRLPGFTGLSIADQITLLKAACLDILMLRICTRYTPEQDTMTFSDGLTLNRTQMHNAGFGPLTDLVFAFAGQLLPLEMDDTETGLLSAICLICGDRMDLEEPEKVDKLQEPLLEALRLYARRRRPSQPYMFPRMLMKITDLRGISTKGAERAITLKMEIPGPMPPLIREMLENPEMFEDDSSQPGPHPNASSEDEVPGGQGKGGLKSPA
Kind of series: ligand binding assay, RARγ. To be noted: Kd line of EC50/(EFFICACY)/Kd, read-out: RAR Kd γ.
Text: as §1
A holoreceptor transactivation assay and a ligand binding assay which measure the antagonist/agonist like activity of the compounds of the invention, or their ability to bind to the several retinoid receptor subtypes, respectively, are described in published PCT Application No. WO WO93/11755 (particularly on pages 30-33 and 37-41) published on Jun. 24, 1993, the specification of which is also incorporated herein by reference. A detailed experimental procedure for holoreceptor transactivations has been described by Heyman et al. Cell 68, 397-406, (1992); Allegretto et al. J. Biol. Chem. 268, 26625-26633, and Mangelsdorf et al. The Retinoids: Biology, Chemistry and Medicine, pp 319-349, Raven Press Ltd., New York, which are expressly incorporated herein by reference. The results obtained in this assay are expressed in EC50 numbers, as they are also in the chimeric receptor transactivation assay. The results of ligand binding assay are expressed in Kd numbers. (See Cheng et al. Biochemical Pharmacology Vol. 22 pp 3099-3108, expressly incorporated herein by reference.)
The results if the ligand binding assay for several preferred compounds of the invention are included in Table 1.

Turning to `CC1(C)CC2(CC2)Oc2c(C3CC3)cc(C#Cc3ccc(CC(=O)O)cc3)cc21` [Compound 48, Benzeneacetic Acid, 4-[(8-cyclopropyl-3,4-dihydro-4,4-dimethylspiro[2H-1-benzopyran-2,1′-cyclopropane]-6-yl)ethynyl]-], the 50% inhibitory concentration (IC50) in series [1] stood at 30 nM. Moreover, the “Cutaneous Toxicity Score (Blackjack Score)” value (“Cutaneous Toxicity Score” for short) came to 1 ± 1 in series [2] (100 nmole (nmol/25 g)), 3 ± 1 in series [2] (300 nmole (nmol/25 g)) and 7 ± 2 in series [2] (1000 nmole (nmol/25 g)).
The like results for `CN(C1CC1)C1CCC(C)(C)c2cc(C#Cc3ccc(CC(=O)O)c(F)c3)ccc21` (stereo not shown) [Compound 18, [4-(5-(Cyclopropyl-methyl-amino)-8,8-dimethyl-5,6,7,8-tetrahydro-naphthalene-2-yl-ethynyl)-2-fluoro-phenyl]-acetic Acid] were, in that order, 1100 nM, 0 ± 0, 5 ± 2 and 10 ± 2.
With `CC1(C)CC(C)(C)c2cc(C#Cc3ccc(CC(=O)O)c(F)c3)cc(C3CC3)c2O1` [Compound 38, [4-(8-Cyclopropyl-2,2,4,4-tetramethyl-chroman-6-yl-ethynyl)-2-fluorophenyl]acetic Acid], in series [1], the half-inhibitory concentration (IC50) amounted to 25 nM. Also, the dissociation constant Kd in series [3] was found to be 5320 nM; in series [4], 2880 nM. The entries for the “Cutaneous Toxicity Score” value in series [2] (100 nmole (nmol/25 g)) and in series [2] (1000 nmole (nmol/25 g)) were 1 ± 1 and 10 ± 1, respectively.
Turning to `CC1(C)CC2(CC2)Oc2c(C3CC3)cc(C(=O)Oc3ccc(CC(=O)O)cc3)cc21` [Compound 58, Spiro[2H-1-benzopyran-2,1′-cyclopropane]-6-carboxylic Acid, 8-cyclopropyl-3,4-dihydro-4,4-dimethyl-, 4-(carboxymethyl)phenyl Ester], the IC50 in series [1] was 180 nM. Also, the “Cutaneous Toxicity Score” value in series [2] (100 nmole (nmol/25 g)), in series [2] (300 nmole (nmol/25 g)) and in series [2] (1000 nmole (nmol/25 g)) was 0 ± 0 each time.
Take `CC1(C)CC2(CC2)Oc2c(C3CC3)cc(C#Cc3ccc(CC(=O)O)c(F)c3)cc21` [Compound 50, 4-[(8-Cyclopropyl-3,4-dihydro-4,4-dimethylspiro[2H-1-benzopyran-2,1′-cyclopropane]-6-yl)ethynyl]-2-fluoro-benzeneacetic Acid]: in series [1], the IC50 is 14 nM. The entries for the “Cutaneous Toxicity Score” value in series [2] (100 nmole (nmol/25 g)), in series [2] (300 nmole (nmol/25 g)) and in series [2] (1000 nmole (nmol/25 g)) were 1 ± 0, 3 ± 2 and 8 ± 2, respectively.
As for `CC1(C)CCC(=O)c2ccc(C#Cc3ccc(CC(=O)O)c(F)c3)cc21` [Compound 15, [2-Fluoro-4-(8,8-dimethyl-5-oxo-5,6,7,8-tetrahydro-naphthalene-2-yl-ethynyl)phenyl]-acetic Acid], the “Cutaneous Toxicity Score” value in series [2] (100 nmole (nmol/25 g)) is 1 ± 1; in series [2] (1000 nmole (nmol/25 g)), 5 ± 2.
Consider `CC1(C)CN(C2CC2)Cc2ccc(C#Cc3ccc(CC(=O)O)c(F)c3)cc21` [Compound 22, [4-(2-Cyclopropyl-4,4-dimethyl-1,2,3,4-tetrahydro-isoquinoline-6-yl-ethynyl)-2-fluoro-phenyl]-acetic Acid], for which the IC50 in series [1] came out at 1600 nM. Moreover, the “Cutaneous Toxicity Score” value in series [2] (100 nmole (nmol/25 g)) is 0 ± 0; in series [2] (300 nmole (nmol/25 g)), 0 ± 0; in series [2] (1000 nmole (nmol/25 g)), 1 ± 1.
As to `CC1(C)CCC(n2ccnc2)c2ccc(C#Cc3ccc(CC(=O)O)cc3)cc21` (stereo not shown) [Compound 137, [4-(5-Imidazol-1-yl-8,8-dimethyl-5,6,7,8-tetrahydro-naphthalen-2-yl-ethynyl)-phenyl]-acetic Acid], the concentration for half-maximal inhibition (IC50) in series [1] stood at 100 nM. Further, the “Cutaneous Toxicity Score” value in series [2] (100 nmole (nmol/25 g)) is given as 1 ± 1; in series [2] (300 nmole (nmol/25 g)) it was 1 ± 1; in series [2] (1000 nmole (nmol/25 g)) it was 5 ± 2.

As usually defined, the IC50 is the point on the concentration scale where inhibition reaches its midpoint. What is called Kd is the free concentration of one partner at which half of the binding sites on the other are occupied at equilibrium, for simple one-to-one binding.

Source of the values: patent US6369225B1, “Compounds having activity as inhibitors of cytochrome P450RAI” (Allergan Sales, Inc., priority 2000, dated 2002).
